{"source": "patent US20260363977A1", "about": "“COSMETIC COMPOSITION FOR PREVENTING OR AMELIORATING SKIN DISEASES COMPRISING TRIBULUS TERRESTRIS-DERIVED COMPOUND AS ACTIVE INGREDIENT” (DONGGUK UNIVERSITY INDUSTRY-ACADEMIC COOPERATION FOUNDATION, priority 2022, published 2026)", "type_in_all_cases": "cell-based", "key": {"tyrosinase [1]": {"system": "tyrosinase", "experiment": "Western blot of tyrosinase expression in ARG2 overexpressing keratinocyte / normal melanocyte co-culture model (with pCMV control gene model)", "conditions": "10 μM, 48 hours, compared to control group (CON), P<0.05, FIG. 3", "experimental": "(§1) Keratinocytes used were isolated from normal adult skin tissues obtained through repeated cesarean section and circumcision. The cells were dispensed into EpiLife Medium, and bovine pituitary extract (BPE), bovine insulin (BI), hydrocortisone, human epidermal growth factor (EGF), and bovine transferrin (BT) were added and cultured. The cells that had undergone the 3rd~5th passage culture were used in the experiment. The pituitary extract, bovine insulin, hydrocortisone, human epidermal growth factor, and bovine transferrin were used by purchasing from Invitrogen.\n(§2) Melanocytes used were isolated from normal adult skin tissues obtained through repeated cesarean section and circumcision. […]\n(§3) In order to identify the skin whitening and anti-aging effects of 16 candidate materials in Example 1-2, for the skin whitening effect, each of the three types of cell models constructed in the Example 2-1 was treated with the 16 candidate materials at concentrations at which no cytotoxicity is shown in the melanocytes identified in Example 1-1 for 48 hours, and then Western blot was performed to measure the expression of tyrosinase. The experiment was repeated 4 times, and P<0.05 was determined to be significant. […] The experiment was repeated 4 times, and P<0.05 was determined to be significant."}, "Melanocytes": {"system": "Melanocytes", "experiment": "MTT cytotoxicity assay in melanocytes", "conditions": "up to the treatment concentration of 10 μM, 48 hours, FIG. 1", "experimental": "(§4) Melanocytes used were isolated from normal adult skin tissues obtained through repeated cesarean section and circumcision. Dispase 2.4U (#295 825; Roche, Mannheim, Germany) was treated for 1 hour to separate the epidermis, and 0.05% trypsin was treated for 10 minutes to isolate melanocytes. Afterwards, the cells were suspended in Medium 254, and the bovine pituitary extract (BPE), fetal bovine serum (FBS), hydrocortisone, basic fibroblast growth factor (bFGF), bovine transferrin (BT), heparin, and phorbol 12-myristate13-acetate (PMA, Invitrogen) were added and cultured. The cells that had undergone the 3rd~5th passage culture were used in the experiment.\nIn order to identify cytotoxicity of the 136 candidate materials, MTT assays were performed. Melanocytes were treated with the candidate materials by concentration (10, 50, and 100 μM) for 48 hours, and the cell viability was measured to determine the concentration range at which no cytotoxicity of each candidate material is observed."}, "p16 (Ink4a)": {"system": "p16 (Ink4a)", "experiment": "Western blot of p16 (Ink4a) expression in keratinocytes (anti-aging effect)", "conditions": "10 μM, 48 hours, compared to control group (CON), P<0.05, FIG. 4", "experimental": "as §1\nIn order to identify the skin whitening and anti-aging effects of 16 candidate materials in Example 1-2, for the skin whitening effect, each of the three types of cell models constructed in the Example 2-1 was treated with the 16 candidate materials at concentrations at which no cytotoxicity is shown in the melanocytes identified in Example 1-1 for 48 hours, and then Western blot was performed to measure the expression of tyrosinase. The experiment was repeated 4 times, and P<0.05 was determined to be significant. In addition, for analysis on the anti-aging effect, the keratinocytes were treated with the above 16 candidate materials for 48 hours each, and then Western blot was performed to measure the expression of p16 (Ink4a). The experiment was repeated 4 times, and P<0.05 was determined to be significant."}, "tyrosinase [2]": {"system": "tyrosinase", "experiment": "Western blot of intracellular tyrosinase expression in melanocytes (skin whitening effect)", "conditions": "T13 at 10 μM, 48 hours, compared to control group (CON), repeated 4 times or more, FIG. 2", "experimental": "as §4\nIn order to identify the skin whitening effect of the 136 candidate materials, Western blot was performed. After treating melanocytes with the candidate material at a concentration at which no cytotoxicity was shown in the melanocytes identified in Example 1-2 for 48 hours, intracellular tyrosinase expression was measured. The experiment was repeated 4 times or more."}, "tyrosinase [3]": {"system": "tyrosinase", "experiment": "Western blot of tyrosinase expression in CDH11 overexpressing keratinocyte / melanocyte co-culture model (with pCMV control gene model)", "conditions": "10 μM, 48 hours, compared to control group (CON), FIG. 3", "experimental": "as §1, §2, §3"}, "tyrosinase; p16 (Ink4a)": {"system": "tyrosinase; p16 (Ink4a)", "experiment": "Combined analysis of skin whitening (tyrosinase in three cell models) and anti-aging (p16 in keratinocytes) effects", "conditions": "5 of 16 candidate materials; non-cytotoxic concentrations; 48 hours", "experimental": "Keratinocytes were seeded in a culture container at 2×10^5/ml, after 24 hours, pCMV plasmids containing one of three genes [arginase 2 (ARG2, NCBI Gene ID: 384), cadherin 11 (CDH11, NCBI Gene: 1009), and guanine deaminase (GDA, NCBI Gene: 9615)] were transfected into cells using Lipofectamine 2000 to induce overexpression, and after 4 hours of culture with Dulbecco's Modified Essential Medium (DMEM) culture medium without supplements, 0.5×10^5/ml melanocytes were mixed with the keratinocyte culture medium containing supplements and co-cultured in the same culture container. After 24 hours, the keratinocyte culture medium without supplements was replaced, and after 5 hours, the normal melanocytes were treated with the 16 candidate materials for 48 hours. […]\nas §3"}, "tyrosinase [4]": {"system": "tyrosinase", "experiment": "Western blot of tyrosinase expression in GDA overexpressing keratinocyte / melanocyte co-culture model (with pCMV control gene model)", "conditions": "10 μM, 48 hours, compared to control group (CON), P<0.05, FIG. 3", "experimental": "as §1, §2, §3"}}, "data": [{"compound": "COc1cc([C@@H](O)[C@H](CO)c2ccc(O)c(OC)c2)ccc1O", "note": "[T13]", "values": [{"measurement": "tyrosinase expression, ARG2 overexpressing co-cultured cell model", "setting": "tyrosinase [1]; ARG2 model, more distinct than in pCMV model", "value": "degree of reduction in tyrosinase expression was more distinct"}, {"measurement": "tyrosinase expression, control gene overexpressing co-cultured cell model (pCMV)", "setting": "tyrosinase [1]; pCMV model of the ARG2 experiment", "value": "significant decrease in tyrosinase expression"}, {"measurement": "cytotoxicity in melanocytes (cell viability, MTT)", "setting": "Melanocytes", "value": "did not show cytotoxicity"}, {"measurement": "p16 (Ink4a) expression in keratinocytes", "setting": "p16 (Ink4a)", "value": "significantly reduced"}, {"measurement": "intracellular tyrosinase expression in melanocytes", "setting": "tyrosinase [2]", "value": "significantly reduced"}, {"measurement": "tyrosinase expression, CDH11 overexpressing co-cultured cell model", "setting": "tyrosinase [3]; CDH11 model", "value": "tyrosinase expression was reduced"}, {"measurement": "tyrosinase expression, control gene overexpressing co-cultured cell model (pCMV)", "setting": "tyrosinase [3]; pCMV model of the CDH11 experiment", "value": "did not show a significant difference in expression"}, {"measurement": "skin whitening and anti-aging effects shown together", "setting": "tyrosinase; p16 (Ink4a)", "value": "skin whitening and anti-aging effects were shown together"}, {"measurement": "tyrosinase expression, GDA overexpressing co-cultured cell model", "setting": "tyrosinase [4]; GDA model, more distinct than in pCMV model", "value": "degree of reduction in tyrosinase expression was more distinct"}, {"measurement": "tyrosinase expression, control gene overexpressing co-cultured cell model (pCMV)", "setting": "tyrosinase [4]; pCMV model of the GDA experiment", "value": "significant reduction in tyrosinase expression"}]}]}
